Data on 3 compounds can be found in patent US4895933A, “New antitumor agent obtained by microbial stereoselective reduction of 4'-deoxy-4'-iododoxorubicin” (Farmitalia Carlo Erba S.p.A., priority 1987, dated 1990).

Data set [1] has as its system disseminated Gross leukemia. As to the kind of experiment: in vivo antitumor activity against disseminated Gross leukemia. Details: species or system C3H mice. The following applies: for Toxic deaths (evaluated on the basis of autopsy findings on dead mice): C3H mice; for T/C % (median survival time of treated mice/median survival time of controls × 100): day after tumor injection, in parentheses: single experiments. On the procedure:
The "in vivo" antitumor activity, FCE 24883 (II) was tested against disseminated Gross leukemia. C3H mice were injected intravenously with 2.10^6 cell/mouse and treated with compounds under study 24 hours after the tumor injection.
^(a) C3H mice were injected i.v. with 2 × 10^6 leukemia
cells and treated i.v. with the compounds the day after the tumor
^(b) (Median survival time of treated mice/median survival time of
^(c) Evaluated on the basis of autopsy findings on dead mice.

Data set [2] is described as follows: solubility. Type of data set: physicochemical.
Data set [3] has as its system HeLa cells. As to the kind of experiment: in vitro cytotoxic activity, HeLa cells colony formation. The class given is cell-based, human. The following applies: for IC50: HeLa, read-out: ID50 (dose giving 50% reduction of cell number in comparison with untreated controls). From the text: ^(a) Dose giving 50% reduction of cell number in comparison with […]
Data set [4] concerns experimental tumors. As to the kind of experiment: activity on experimental tumors (general statement). The following applies: in vivo.
Data set [5] has as its system P388 leukemia cells. Briefly: in vitro cytotoxic activity, P388 cells colony formation. The class given is cell-based. Particulars: for IC50: Mus musculus. The text has this:
^(a) Dose giving 50% reduction of cell number in comparison with
^(c) P388 leukemia cells.

Setting [6] is: human cervix epithelioid carcinoma cells.
Setting [7] is: P388 leukemia cells, read-out: ID50 (dose giving 50% reduction of cell number in comparison with untreated controls).

In brackets after ≈: the same amount, converted by molar mass. Like-named read-outs stand apart in the source and are kept apart here.

Consider `COc1cccc2c1C(=O)c1c(O)c3c(c(O)c1C2=O)C[C@@](O)([C@@H](O)CO)C[C@@H]3O[C@H]1C[C@H](N)[C@H](I)[C@H](C)O1` [FCE 24883 (II), 4'-deoxy-13(S)-dihydro-4'-iododoxorubicin], for which the “Toxic deaths (evaluated on the basis of autopsy findings on dead mice)” value (“Toxic deaths” for short) in data set [1] (4 mg/Kg i.v.) is listed as 0/10; in data set [1] (5.2 mg/Kg i.v.) it was 0/20; in data set [1] (6.8 mg/Kg i.v.), 0/20; in data set [1] (8.8 mg/Kg i.v.) it was 5/9. For the same compound, the “T/C % (median survival time of treated mice/median survival time of controls × 100)” value in data set [1] (4 mg/Kg i.v.) is 180 (180) %; in data set [1] (5.2 mg/Kg i.v.) it was 220 (220, 220) %; in data set [1] (6.8 mg/Kg i.v.), 220 (220, 220) %; in data set [1] (8.8 mg/Kg i.v.), 140 (140) %. Besides, the toxicity displayed result in data set [1] (at the active doses) is on record as “minor toxicity”. In addition, the “antitumor potency in comparison with compound I” value in data set [1] (at the optimal dose) is given as “as potent as 4'-deoxy-4'-iododoxorubicin (I)”. Further, the “antitumor potency in comparison with doxorubicin” value in data set [1] (at the optimal dose) is reported as “more potent than doxorubicin”. Moreover, in data set [1] (mouse, in vivo), the “antitumor activity, evaluated as median survival time of treated over control mice, in comparison with I and doxorubicin” value is “can be compared with those of I and doxorubicin”. Besides, the “solubility of the free base” value in data set [2] (free base, polar organic solvents and aqueous alcohols) is “soluble in polar organic solvents and aqueous alcohols”. The “solubility of the hydrochloride in organic solvents” value in data set [2] (hydrochloride, organic solvents) is on record as “slighty soluble in organic solvents”. For the same compound, the “solubility of the hydrochloride in water and lower alcohols” value in data set [2] (hydrochloride, water and lower alcohols) was “soluble in water and lower alcohols”. Also, the “cytotoxic activity, potency in comparison with compound I and doxorubicin” value in data set [3] (HeLa cells, in vitro) is “as potent as 4'-deoxy-4'-iododoxorubicin (I) and doxorubicin”; in data set [5] (P388 cells, in vitro) it was “as potent as 4'-deoxy-4'-iododoxorubicin (I) and doxorubicin”. For the same compound, the IC50 in data set [3] (setting [6]) is 8 ng/mL (≈ 0.0122 µM); in data set [5] (setting [7]), 3.5 ng/mL (≈ 0.00534 µM). In addition, the “activity on experimental tumors in comparison with compound I” value in data set [4] is listed as “comparable with that of 4'-deoxy-4'-iododoxorubicin (I)”.
For the compound `COc1cccc2c1C(=O)c1c(O)c3c(c(O)c1C2=O)C[C@@](O)(C(=O)CO)C[C@@H]3O[C@H]1C[C@H](N)[C@H](I)[C@H](C)O1` [FCE 21954 (I), 4'-deoxy-4'-iododoxorubicin], the “Toxic deaths” value in data set [1] (4 mg/Kg i.v.) is listed as 0/20; in data set [1] (5.2 mg/Kg i.v.), 4/20; in data set [1] (6.8 mg/Kg i.v.), 19/20. The “T/C % (median survival time of treated mice/median survival time of controls × 100)” value in data set [1] (4 mg/Kg i.v.) is reported as 240 (240, 240) %; in data set [1] (5.2 mg/Kg i.v.) it was 260 (260, 260) %; in data set [1] (6.8 mg/Kg i.v.), 145 (160, 130) %. Also, the results for the IC50 in data set [3] (setting [6]) and in data set [5] (setting [7]) were 10.4 ng/mL (≈ 0.0159 µM) and 2.1 ng/mL (≈ 0.00321 µM), respectively.
As for `COc1cccc2c1C(=O)c1c(O)c3c(c(O)c1C2=O)C[C@@](O)(C(=O)CO)C[C@@H]3O[C@H]1C[C@H](N)[C@H](O)[C@H](C)O1` [DX, Doxorubicin], the “Toxic deaths” value is 0/20 in data set [1] (10 mg/Kg i.v.), 0/20 in data set [1] (13 mg/Kg i.v.) and 2/20 in data set [1] (16.9 mg/Kg i.v.). Further, the “T/C % (median survival time of treated mice/median survival time of controls × 100)” value in data set [1] (10 mg/Kg i.v.) is listed as 200 (200, 200) %; in data set [1] (13 mg/Kg i.v.) it was 225 (230, 220) %; in data set [1] (16.9 mg/Kg i.v.) it was 250 (260, 240) %. In addition, the IC50 in data set [3] (Homo sapiens) was found to be 10.8 ng/mL (≈ 0.0199 µM); in data set [5] (P388, read-out: ID50 (dose giving 50% reduction of cell number in comparison with untreated controls)) it was 8 ng/mL (≈ 0.0147 µM).
